From ChEMBL document CHEMBL1141108, “Alkyl-substituted polyaminohydroxamic acids: a novel class of targeted histone deacetylase inhibitors” (J Med Chem, 2005)

Target: Histone deacetylase
Experiment: In vitro residual activity against Histone deacetylase (HDAC) at 1 uM concentration

**Q.** How did the residual activity turn out when `Br.O=C(CCCCC(=O)NCCCNCCCNCCCNCCCNCC1CCCCCC1)NO` was run?
**A.** 59%

**Q.** `Br.CC(C)(C)c1ccc(CNCCCCNCCCNC(=O)CCCCC(=O)O)cc1` was tested. Which residual activity did it give?
**A.** 98.5%

**Q.** For `Br.O=C(CCCCCCC(=O)NCCCNCCCCNCCC(c1ccccc1)c1ccccc1)NO`, which residual activity is on record?
**A.** 26.1%

**Q.** For `Cc1ccc(CNCCCCNC(=O)CCCCCCC(=O)NO)cc1.O=C(O)C(F)(F)F`, which residual activity is on record?
**A.** 46.8%

**Q.** Which residual activity does the source give for `Br.CN(C)c1ccc(CN(CCCNCCCCN)C(=O)CCCCC(=O)NO)cc1` here?
**A.** 40%

**Q.** `CN(C)c1ccc(CN(CCCCN)C(=O)CCCCCCC(=O)NO)cc1.O=C(O)C(F)(F)F` was tested. Which residual activity did it give?
**A.** 84.4%

**Q.** `Br.O=C(CCCCC(=O)NCCCNCCCCNCCC(c1ccccc1)c1ccccc1)NO` was tested. Which residual activity did it give?
**A.** 80.2%

**Q.** Which residual activity does the source give for `CN(C)c1ccc(CNCCCCNC(=O)CCCCCCC(=O)NO)cc1.O=C(O)C(F)(F)F` here?
**A.** 66.1%

**Q.** How did the residual activity turn out when `CN(C)c1ccc(CNCCCCNC(=O)CCCCC(=O)NO)cc1.O=C(O)C(F)(F)F` was run?
**A.** 89.7%

**Q.** Which residual activity does the source give for `O=C(CCCCC(=O)NCCCCN(Cc1ccccc1-c1ccccc1)Cc1ccccc1-c1ccccc1)NO` here?
**A.** 96.3%

**Q.** How did the residual activity turn out when `Cc1ccc(CNCCCCNC(=O)CCCCC(=O)NO)cc1` was run?
**A.** 55.8%

**Q.** How did the residual activity turn out when `O=C(CCCCC(=O)NCCCCNCc1ccccc1-c1ccccc1)NO` was run?
**A.** 83.7%

**Q.** How did the residual activity turn out when `Br.CC(C)(C)c1ccc(CNCCCCNCCCNC(=O)CCCCC(=O)NO)cc1` was run?
**A.** 25.1%

**Q.** `Br.CC(C)(C)c1ccc(CNCCCCNCCCNC(=O)CCCCCCC(=O)NO)cc1` was tested. Which residual activity did it give?
**A.** 50.6%
